Data on four compounds can be found in patent publication US20060134068A1, “Treatment of cancer by simultaneous inhibiton of BRAF and restoration or mimicry of p16INK4A activity” (Mount Sinai School of Medicine of New York University, priority 2004, published 2006).

Assay [1] relates to 624Mel, WM35, A375, and Mel1363 cells. Description: Preliminary chemotherapeutic treatment, daily cell counting and colony formation. The settings on record: after 6-24 hr treatment, both concentrations. Type of assay: cell-based.
Assay [2] has as its system mBRAF positive melanoma cells. The settings on record: mice, Collisson et al. 2003; cited from earlier work.
Assay [3] has as its system untreated, advanced, melanoma. The conditions noted are these: 17 patients, treatment for a median of about 3 months; cited from earlier work.
Assay [4] concerns the target CDK4 (Homo sapiens, UniProt P11802). The conditions noted are these: Kubo et al. 1999; cited from earlier work.

Each structure is given as a SMILES string.

CDK4, sequence (P11802 whole entry, species assumed): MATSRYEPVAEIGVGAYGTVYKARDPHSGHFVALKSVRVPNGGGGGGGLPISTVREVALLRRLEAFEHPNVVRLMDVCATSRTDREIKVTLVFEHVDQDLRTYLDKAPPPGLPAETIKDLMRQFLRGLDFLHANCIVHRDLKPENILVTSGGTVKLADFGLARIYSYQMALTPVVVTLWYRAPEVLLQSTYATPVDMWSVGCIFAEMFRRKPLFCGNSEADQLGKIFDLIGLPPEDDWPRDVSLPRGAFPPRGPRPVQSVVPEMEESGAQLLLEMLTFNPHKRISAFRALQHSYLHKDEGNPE
CDK4, sequence (P24385 whole entry partner, species assumed): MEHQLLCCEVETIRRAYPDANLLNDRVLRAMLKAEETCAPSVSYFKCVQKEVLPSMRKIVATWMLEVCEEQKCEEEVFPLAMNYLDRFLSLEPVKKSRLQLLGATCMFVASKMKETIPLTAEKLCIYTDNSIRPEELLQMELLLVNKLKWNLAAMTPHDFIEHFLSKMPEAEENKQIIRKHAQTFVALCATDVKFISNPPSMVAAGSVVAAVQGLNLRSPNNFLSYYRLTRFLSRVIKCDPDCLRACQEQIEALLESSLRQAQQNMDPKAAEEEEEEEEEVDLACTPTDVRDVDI

`CC(=O)O[C@H]1C(=O)[C@@]2(C)[C@H]([C@H](OC(=O)c3ccccc3)[C@]3(O)C[C@H](OC(=O)[C@H](O)[C@@H](NC(=O)c4ccccc4)c4ccccc4)C(C)=C1C3(C)C)[C@]1(OC(C)=O)CO[C@@H]1C[C@@H]2O` [taxol]: the growth inhibition entry in assay [1] is “Growth inhibition was observed”.
Consider `O=C(NOCC1CC1)c1ccc(F)c(F)c1Nc1ccc(I)cc1Cl` [CI 1040], for which the pulmonary metastases result in assay [2] was “suppressed”.
On to `CN1CC[C@H](c2c(O)cc(O)c3c(=O)cc(-c4ccccc4Cl)oc23)[C@H](O)C1` [flavopiridol], for which the clinical response result in assay [3] is “no response”. For the same compound, the “inhibition of CDK4 activity, rank among the compounds” value in assay [4] is given as “most potent inhibitor”.
In the case of `N.N.[Cl][Pt][Cl]` [cisplatin], the growth inhibition result in assay [1] is “Growth inhibition was observed”.
